Assay results published in patent US7528151B2, “Heterocyclic urea derivatives for the treatment of pain” (Glaxo Group Limited, priority 2003, dated 2009).
Structures can show the parent of a compound that is named as a salt.

Biological target: T1, human VR1 (Homo sapiens, UniProt Q8NER1)
T1 construct: expressed in transfected cells
Test: FLIPR based calcium assay, capsaicin-induced response in 1321N1 cells stably expressing human VR1
Assay type: cell-based
Settings: antagonism of capsaicin response; pKb generated from IC50 using the Cheng-Prusoff equation
Protocol: Transfected astrocytoma 1321N1 cells, stably expressing human VR1, were seeded into FLIPR plates at 25,000cells/well (96-well plate) and cultured overnight. The cells were subsequently loaded in medium containing 4 μM Fluo-3 AM (Molecular Probes) for 2 hours, at room temperature, in the dark. The plates were then washed 4 times with Tyrode containing 1.5 mM calcium, without probenecid. The cells were pre-incubated with compound or buffer control at room temperature for 30 minutes. Capsaicin (Sigma) was then added to the cells. Compounds having antagonist activity against the human VR1 were identified by detecting differences in fluorescence when measured after capsaicin addition, compared with no compound buffer controls.

T1 sequence (Q8NER1 whole entry): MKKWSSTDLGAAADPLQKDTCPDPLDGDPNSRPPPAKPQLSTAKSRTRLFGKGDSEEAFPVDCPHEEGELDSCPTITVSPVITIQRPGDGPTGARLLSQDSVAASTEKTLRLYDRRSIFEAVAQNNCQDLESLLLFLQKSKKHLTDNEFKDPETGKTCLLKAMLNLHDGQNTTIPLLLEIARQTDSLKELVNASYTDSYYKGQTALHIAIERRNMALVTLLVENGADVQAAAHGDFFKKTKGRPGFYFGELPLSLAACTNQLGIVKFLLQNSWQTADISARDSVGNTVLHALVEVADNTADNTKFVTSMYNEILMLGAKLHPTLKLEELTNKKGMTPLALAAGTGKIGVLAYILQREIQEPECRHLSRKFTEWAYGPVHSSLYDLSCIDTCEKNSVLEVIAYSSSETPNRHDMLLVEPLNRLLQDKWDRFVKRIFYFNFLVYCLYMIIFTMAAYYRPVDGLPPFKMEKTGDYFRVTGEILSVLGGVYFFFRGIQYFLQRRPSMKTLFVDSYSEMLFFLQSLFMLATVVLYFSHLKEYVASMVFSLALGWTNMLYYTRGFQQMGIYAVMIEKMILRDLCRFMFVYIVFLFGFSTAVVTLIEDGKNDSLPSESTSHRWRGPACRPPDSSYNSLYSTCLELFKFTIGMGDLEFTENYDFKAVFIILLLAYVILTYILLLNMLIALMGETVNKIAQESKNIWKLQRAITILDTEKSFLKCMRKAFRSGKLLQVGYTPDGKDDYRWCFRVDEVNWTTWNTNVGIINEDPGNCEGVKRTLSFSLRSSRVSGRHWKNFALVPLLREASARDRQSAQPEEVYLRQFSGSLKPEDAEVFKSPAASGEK

Kb [µM] | Structure (SMILES)
< 0.1 | Cc1nccc2c(NC(=O)NC3CCN(c4ncc(C(F)(F)F)cc4Cl)CC3)cccc12 [Example 1, 1-([3-Chloro-5-trifluoromethylpyridinyl-2-yl]piperidin-4-yl)-3-(1-methyl-isoquinolin-5-yl)-urea hydrochloride]
< 0.1 | COc1nc(N2CCC(NC(=O)Nc3cccc4c(C)nccc34)CC2)ccc1C(F)(F)F [Example 2, 1-([6-Methoxy-5-trifluoromethylpyridinyl-2-yl]piperidin-4-yl)-3-(1-methyl-isoquinolin-5-yl)-urea hydrochloride]
